Drawing on article PMC12668314, “Identification of a Proteolysis‐Targeting‐Chimera that Addresses Activated Checkpoint Kinase‐1 Reveals its Non‐Catalytic Functions in Tumor Cells” (Angewandte Chemie (International Ed. in English), 2025), this text covers inhibition for three compounds.

In the experiment the target is T1, CHK1 (checkpoint kinase-1) (Homo sapiens, UniProt O14757).
T1 construct: gene CHEK1
T1 sequence (O14757 1-476): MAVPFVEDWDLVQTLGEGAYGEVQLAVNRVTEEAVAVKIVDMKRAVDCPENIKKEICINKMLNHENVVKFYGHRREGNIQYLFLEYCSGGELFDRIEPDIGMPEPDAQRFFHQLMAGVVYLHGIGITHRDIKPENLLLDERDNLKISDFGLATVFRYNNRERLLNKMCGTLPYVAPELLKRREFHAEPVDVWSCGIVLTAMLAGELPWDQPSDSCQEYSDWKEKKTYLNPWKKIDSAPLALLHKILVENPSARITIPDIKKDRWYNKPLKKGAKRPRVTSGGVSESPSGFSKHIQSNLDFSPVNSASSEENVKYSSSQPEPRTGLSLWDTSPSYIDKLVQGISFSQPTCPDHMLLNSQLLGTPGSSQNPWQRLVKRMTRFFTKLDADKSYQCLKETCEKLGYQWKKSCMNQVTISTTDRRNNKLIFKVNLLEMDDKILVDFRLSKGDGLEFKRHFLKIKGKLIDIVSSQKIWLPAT
In words: in vitro binding test against human CHK1 (Eurofins Discovery), at […].
For orientation: inhibition means how much of the control response was suppressed. A low value points to a weak effect. `CNC(=O)c1ccc(NC(=O)Nc2cnc(C)cn2)c(OC[C@@H]2CNCCO2)c1` [9a] gave an inhibition at 1 µM of 95%.
Under `CNC(=O)c1ccc(OC[C@@H]2CNCCO2)c(NC(=O)Nc2cnc(C)cn2)c1` [9b] stands 90%; under `Cc1cnc(NC(=O)Nc2cc(Br)c(C)cc2OC[C@@H]2CNCCO2)cn1` [rabusertib], 98%.
